Experiments:
[1] = GSH and MDA in LTE rats; format: in vivo, Sprague-Dawley rats; settings: 25 mg/kg/day, data not shown
[2] = system: genes of calcium signaling and flux; experiment: Gene chip analysis of human skeletal muscle biopsies (vastus lateralis), Human Genome U133 Plus 2.0; format: in vivo; settings: 6 weeks, human muscle biopsy
Description: Three groups each n=20 were enrolled in the study. The group assignment was randomly done by subject weight across the 3 groups. Each subject received a total of 3 capsules each day over a period of 6 weeks: • Group 1—Placebo: 3 capsules with each 333 mg of modified starch • Group 2—LOW (50 mg/d hydroxytyrosol): 1 capsule with 333 mg investigational product (1 capsule with 50 mg hydroxytyrosol) and 2 capsules with each 333 mg modified starch • Group 3—HIGH (150 mg/d hydroxytyrosol): 3 capsules with each 333mg investigational product ([…])
Muscle biopsy was performed at 2 h after ingestion of the supplements as it had taken 30 min setup time before the tissue can be removed. Two skeletal muscle tissue biopsies were taken at beginning (day 1, baseline sample) of the study and at day 42. The following was assessed in skeletal muscle tissue: 1) global gene expression profile and 2) cellular factors in tissue involved in energy metabolism or other specific pathways.
A muscle biopsy (100 mg) was taken from the vastus lateralis, a thigh muscle.
The skin was cleaned with 10% povidone-iodine (Betadine Solution, Purdue Pharma L.P., Stamford, Conn.) and then anesthetized by injecting 1.5 cc of 1% Lidocaine-HCL into the skin. A 5-8 mm incision was made in the skin and subcutaneous fat, and then approximately 100 mg of muscle tissue was removed using a Bergstrom biopsy needle from the thigh musculature (Dyna Medical, London, Ont. Canada).
The biopsy was trimmed of adipose and connective tissue, weighted and separated into 25 mg and 75 mg, placed into labelled and cooled cryotubes and immediately frozen in liquid nitrogen. Samples are stored at −80° C. for subsequent analysis. The incision site will be sealed using butterfly bandages, then wrapped with a pressure pack to minimize bruising. Approximately 25 mg of muscle tissue was used to determine the effect of the olive product on the gene expression profile involved in the energy metabolism. Neither the Sponsor nor the investigator has performed genetic finger printing and has destroyed any remaining tissue after their testing has been completed.
RNA extraction from frozen tissue samples (skeletal muscle biopsies) as described above was done using Trizol method as followed:
RNA was processed using the 3′IVT Express Kit (Affymetrix, Cat. No. 901229) according to the manual.
Fragmented aRNA for each sample was hybridized onto a Human Genome U133 Plus 2.0 Gene Chip (Affymetrix, Cat. No. 900467).
All CEL files from Affymetrix were uploaded into the analysis software (Partek) using GCRMA. GCRMA is a method of converting CEL files into expression set using the Robust Multi-array Average (RMA) with the help of probe sequence and with GC-content background correction. It is a method for normalizing and summarizing probe-level intensity measurements from Affymetrix GeneChips. Three steps: Background correction, normalization, summarization.
After GCRMA preprocessing of the .CEL files, we exported the log 2-transformed expression values from Partek and imported them into the R statistics software (version 2.9.2, http://www.R-project.org). The 57 subjects for which both a pre- and a post-measurement was available were included in the analysis. We applied an ANCOVA (analysis of covariance) with the baseline measurement as covariate to each of the 54675 probesets. The aim was to compare the treatment effect between the groups, while adjusting for the individual baselines which might differ between subjects. The treatment effect between groups can thus be estimated more precisely since the subject-to-subject variability can be separated from the within-subject variability. The baseline and the end-measurements correlated well with each other within the subjects. […]

[3] = Endurance capacity, treadmill running to exhaustion after 8 weeks long-term exercise (LTE); format: in vivo, Sprague-Dawley rats; settings: exercise (LTE) rats, 25 mg/kg/day by gavage
Description: Sprague-Dawley male rats were purchased from a commercial breeder (SLAC, Shanghai). The rats were housed in a temperature—(22-28° C.) and humidity—(60%) controlled animal room and maintained on a 12-h light/12-h dark cycle (light on from 08:00 a.m. to 08:00 p.m.) with free access to food and water throughout the experiments. […] rats weighing 180-200 g were used. At the beginning of experiments, male rats were selected by one week running exercise at low speed (10 m/min, 20 min/day) and those high exercise activity rats were chosen for the experiments. Rats were randomly divided into four groups: Sedentary, Sedentary with HT supplement (25 mg/kg/day), Endurance exercise and Endurance exercise with HT supplement (25 mg/kg/day). HT was administrated by gavage 45 min before exercise program for each animal. Rats were run on a motorized treadmill at a speed of 20 m/min and a grade of 5° for 1 hour per day and 6 days per week. After 8 weeks exercise, endurance capacity was measured by treadmill running to exhaustion at a speed of 30 m/min and a grade of 5°. Exhaustion was defined as the inability to maintain running and avoid sound and light irritation.

Structure (SMILES): OCCc1ccc(O)c(O)c1 [hydroxytyrosol, 3,4-dihydroxyphenylethanol]
- GSH [1]: no effect
- MDA [1]: no effect
- baseline-corrected fold-change vs placebo: ATPase, Ca++ transporting, cardiac muscle, fast twitch 1 ([2]; 50 mg HT/d): 1.11
- baseline-corrected fold-change vs placebo: ATPase, Ca++ transporting, plasma membrane 2 ([2]; 50 mg HT/d): 1.06
- baseline-corrected fold-change vs placebo: ATPase, Ca++ transporting, plasma membrane 4 ([2]; 50 mg HT/d): 1.10
- baseline-corrected fold-change vs placebo: ATPase, Ca++ transporting, type 2C, member 1 ([2]; 50 mg HT/d): 1.07
- baseline-corrected fold-change vs placebo: C2 calcium-dependent domain containing 3 ([2]; 50 mg HT/d): 1.13
- baseline-corrected fold-change vs placebo: EF-hand calcium binding domain 2 ([2]; 50 mg HT/d): 1.09
- baseline-corrected fold-change vs placebo: EF-hand calcium binding domain 7 ([2]; 50 mg HT/d): 1.00
- baseline-corrected fold-change vs placebo: S100 calcium binding protein A4 ([2]; 50 mg HT/d): 1.07
- baseline-corrected fold-change vs placebo: S100 calcium binding protein A8 ([2]; 50 mg HT/d): 1.08
- baseline-corrected fold-change vs placebo: S100 calcium binding protein A10 ([2]; 50 mg HT/d): 1.06
- baseline-corrected fold-change vs placebo: S100 calcium binding protein A13 ([2]; 50 mg HT/d): 1.05
- baseline-corrected fold-change vs placebo: S100 calcium binding protein B ([2]; 50 mg HT/d): 1.05
- baseline-corrected fold-change vs placebo: annexin A1 ([2]; 50 mg HT/d): 1.11
- baseline-corrected fold-change vs placebo: annexin A2 ([2]; 50 mg HT/d): 1.13
- baseline-corrected fold-change vs placebo: annexin A2 pseudogene 2 ([2]; 50 mg HT/d): 1.09
- baseline-corrected fold-change vs placebo: annexin A6 ([2]; 50 mg HT/d): 1.06
- baseline-corrected fold-change vs placebo: annexin A11 ([2]; 50 mg HT/d): 1.04
- baseline-corrected fold-change vs placebo: cadherin, EGF LAG seven-pass G-type receptor 2 (flamingo homolog, Drosophila) ([2]; 50 mg HT/d): 1.08
- baseline-corrected fold-change vs placebo: calbindin 2 ([2]; 50 mg HT/d): 1.06
- baseline-corrected fold-change vs placebo: calcineurin-like phosphoesterase domain containing 1 ([2]; 50 mg HT/d): 1.11
- baseline-corrected fold-change vs placebo: calcium and integrin binding family member 2 ([2]; 50 mg HT/d): 0.98
- baseline-corrected fold-change vs placebo: calcium binding protein 4 ([2]; 50 mg HT/d): 1.07
- baseline-corrected fold-change vs placebo: calcium binding protein 39 ([2]; 50 mg HT/d): 1.07
- baseline-corrected fold-change vs placebo: calcium channel, voltage-dependent, L type, alpha 1S subunit ([2]; 50 mg HT/d): 1.03
- baseline-corrected fold-change vs placebo: calcium channel, voltage-dependent, beta 1 subunit ([2]; 50 mg HT/d): 1.02
- baseline-corrected fold-change vs placebo: calcium channel, voltage-dependent, gamma subunit 1 ([2]; 50 mg HT/d): 1.03
- baseline-corrected fold-change vs placebo: calcium channel, voltage-dependent, gamma subunit 6 ([2]; 50 mg HT/d): 1.06
- baseline-corrected fold-change vs placebo: calcium/calmodulin-dependent protein kinase II delta ([2]; 50 mg HT/d): 1.09
- baseline-corrected fold-change vs placebo: calcium/calmodulin-dependent protein kinase kinase 2, beta ([2]; 50 mg HT/d): 1.11
- baseline-corrected fold-change vs placebo: calmodulin 1 (phosphorylase kinase, delta) ([2]; 50 mg HT/d): 1.14
- baseline-corrected fold-change vs placebo: calmodulin 3 (phosphorylase kinase, delta) ([2]; 50 mg HT/d): 1.09
- baseline-corrected fold-change vs placebo: calmodulin regulated spectrin-associated protein 1 ([2]; 50 mg HT/d): 1.04
- baseline-corrected fold-change vs placebo: calnexin ([2]; 50 mg HT/d): 0.98
- baseline-corrected fold-change vs placebo: calpain 2, (m/II) large subunit ([2]; 50 mg HT/d): 1.04
- baseline-corrected fold-change vs placebo: calpain 3, (p94) ([2]; 50 mg HT/d): 0.99
- baseline-corrected fold-change vs placebo: calreticulin ([2]; 50 mg HT/d): 1.06
- baseline-corrected fold-change vs placebo: protein phosphatase 3, catalytic subunit, alpha isozyme ([2]; 50 mg HT/d): 1.09
- baseline-corrected fold-change vs placebo: regulator of calcineurin 1 ([2]; 50 mg HT/d): 1.07
- baseline-corrected fold-change vs placebo: ryanodine receptor 3 ([2]; 50 mg HT/d): 1.23
- baseline-corrected fold-change vs placebo: striatin, calmodulin binding protein 3 ([2]; 50 mg HT/d): 1.13
- baseline-corrected fold-change vs placebo: ATPase, Ca++ transporting, cardiac muscle, fast twitch 1 ([2]; 150 mg HT/d): 1.196
- baseline-corrected fold-change vs placebo: ATPase, Ca++ transporting, plasma membrane 2 ([2]; 150 mg HT/d): 1.174
- baseline-corrected fold-change vs placebo: ATPase, Ca++ transporting, plasma membrane 4 ([2]; 150 mg HT/d): 1.023
- baseline-corrected fold-change vs placebo: ATPase, Ca++ transporting, type 2C, member 1 ([2]; 150 mg HT/d): 1.080
- baseline-corrected fold-change vs placebo: C2 calcium-dependent domain containing 3 ([2]; 150 mg HT/d): 1.078
- baseline-corrected fold-change vs placebo: EF-hand calcium binding domain 2 ([2]; 150 mg HT/d): 1.080
- baseline-corrected fold-change vs placebo: EF-hand calcium binding domain 7 ([2]; 150 mg HT/d): 1.075
- baseline-corrected fold-change vs placebo: S100 calcium binding protein A4 ([2]; 150 mg HT/d): 1.114
- baseline-corrected fold-change vs placebo: S100 calcium binding protein A8 ([2]; 150 mg HT/d): 1.056
- baseline-corrected fold-change vs placebo: S100 calcium binding protein A10 ([2]; 150 mg HT/d): 1.045
- baseline-corrected fold-change vs placebo: S100 calcium binding protein A13 ([2]; 150 mg HT/d): 1.064
- baseline-corrected fold-change vs placebo: S100 calcium binding protein B ([2]; 150 mg HT/d): 1.019
- baseline-corrected fold-change vs placebo: annexin A1 ([2]; 150 mg HT/d): 1.070
- baseline-corrected fold-change vs placebo: annexin A2 ([2]; 150 mg HT/d): 1.047
- baseline-corrected fold-change vs placebo: annexin A2 pseudogene 2 ([2]; 150 mg HT/d): 1.007
- baseline-corrected fold-change vs placebo: annexin A6 ([2]; 150 mg HT/d): 1.062
- baseline-corrected fold-change vs placebo: annexin A11 ([2]; 150 mg HT/d): 1.065
- baseline-corrected fold-change vs placebo: cadherin, EGF LAG seven-pass G-type receptor 2 (flamingo homolog, Drosophila) ([2]; 150 mg HT/d): 1.030
- baseline-corrected fold-change vs placebo: calbindin 2 ([2]; 150 mg HT/d): 1.006
- baseline-corrected fold-change vs placebo: calcineurin-like phosphoesterase domain containing 1 ([2]; 150 mg HT/d): 1.070
- baseline-corrected fold-change vs placebo: calcium and integrin binding family member 2 ([2]; 150 mg HT/d): 1.114
- baseline-corrected fold-change vs placebo: calcium binding protein 4 ([2]; 150 mg HT/d): 1.024
- baseline-corrected fold-change vs placebo: calcium binding protein 39 ([2]; 150 mg HT/d): 1.082
- baseline-corrected fold-change vs placebo: calcium channel, voltage-dependent, L type, alpha 1S subunit ([2]; 150 mg HT/d): 1.080
- baseline-corrected fold-change vs placebo: calcium channel, voltage-dependent, beta 1 subunit ([2]; 150 mg HT/d): 1.125
- baseline-corrected fold-change vs placebo: calcium channel, voltage-dependent, gamma subunit 1 ([2]; 150 mg HT/d): 1.087
- baseline-corrected fold-change vs placebo: calcium channel, voltage-dependent, gamma subunit 6 ([2]; 150 mg HT/d): 1.178
- baseline-corrected fold-change vs placebo: calcium/calmodulin-dependent protein kinase II delta ([2]; 150 mg HT/d): 1.113
- baseline-corrected fold-change vs placebo: calcium/calmodulin-dependent protein kinase kinase 2, beta ([2]; 150 mg HT/d): 1.033
- baseline-corrected fold-change vs placebo: calmodulin 1 (phosphorylase kinase, delta) ([2]; 150 mg HT/d): 1.153
- baseline-corrected fold-change vs placebo: calmodulin 3 (phosphorylase kinase, delta) ([2]; 150 mg HT/d): 1.041
- baseline-corrected fold-change vs placebo: calmodulin regulated spectrin-associated protein 1 ([2]; 150 mg HT/d): 1.089
- baseline-corrected fold-change vs placebo: calnexin ([2]; 150 mg HT/d): 1.066
- baseline-corrected fold-change vs placebo: calpain 2, (m/II) large subunit ([2]; 150 mg HT/d): 1.053
- baseline-corrected fold-change vs placebo: calpain 3, (p94) ([2]; 150 mg HT/d): 1.082
- baseline-corrected fold-change vs placebo: calreticulin ([2]; 150 mg HT/d): 1.044
- baseline-corrected fold-change vs placebo: protein phosphatase 3, catalytic subunit, alpha isozyme ([2]; 150 mg HT/d): 1.048
- baseline-corrected fold-change vs placebo: regulator of calcineurin 1 ([2]; 150 mg HT/d): 1.009
- baseline-corrected fold-change vs placebo: ryanodine receptor 3 ([2]; 150 mg HT/d): 1.355
- baseline-corrected fold-change vs placebo: striatin, calmodulin binding protein 3 ([2]; 150 mg HT/d): 1.024
- improvement of endurance capacity [3]: 35%

— US20130059920A1, “HYDROXYTYROSOL BENEFITS MUSCLE DIFFERENTIATION AND MUSCLE CONTRACTION AND RELAXATION” (DSM IP ASSETS, B.V., priority 2009, published 2013)
